Measurements: patent US8999957B2, “Heterocyclic compounds as ERK inhibitors” (Merck Sharp & Dohme Corp., priority 2010, dated 2015)

Columns and labels:
[1] = biological target: fully phosphorylated, active Mouse ERK2 protein (Mus musculus (Mouse), UniProt P63085); test: Active ERK2 (aERK) IMAP assay, condition 1; format: biochemical; conditions: aERK assay condition 1, 30 μM ATP
Description: Active ERK2 (aERK) Assay: (Unless Indicated Otherwise, the Data Provided for aERK was obtained using Condition 1)
Activated ERK2 activity was also determined in the IMAP assay format using the procedure outlined above. […] Reactions proceeded for 30 minutes before termination by addition of 60 μl IMAP detection beads in binding buffer. Plates were read as above after 30 minute binding equilibration.

ERK protein = ERK protein (Mus musculus, UniProt P63085); test: TdF (Temperature Dependence Fluorescence, thermal shift) assay for ERK; format: binding; conditions: 3 μM ERK protein, uncertainty estimated ±50%, read-out: Kd TdF
Excerpt: Assays: TdF Assay for ERK […] The TdF assay was mainly conducted in the 96-well based CHROMO-4 real time fluorescence plate reader (BioRad). The Sypro Orange (Sigma-Aldrich), environmentally sensitive fluorescence dye, was used to monitor the protein folding-unfolding transition. Protein-ligand binding was gauged by the change (or shift) in the unfolding transition temperature (ΔTm) acquired at protein alone with respect to protein in the presence of ligand of interest. Compound of interest was first prepared in DMSO stock (typical concentration: 10 mM). […] Final percentage of DMSO resided in the sample was 2%. The sample plate was heated from 30° C. to 90° C. with thermal ramping rate of 1° C./min. […] The instrument thermal stability was ±0.2° C. The melting temperatures (Tm) for ERK protein under aforementioned conditions occurred at 61.0±0.2° C. and 64.8±02° C. respectively. Theoretical Basis for TdF-Based Ligand Binding Affinity Constant […] In brief, the binding constant of the ligand at the Tm is expressed as below: [formula] where T0 is the midpoint of unfolding for unliganded protein and Tm is the midpoint of unfolding in presence of ligand. [LTm] is free ligand at Tm. The ΔHu and ΔCpu are the enthalpy of unfolding and heat capacity change of unfolding for the protein respectively. Following algorithm derived by Winsor and coworker, the T0, ΔHu and ΔCpu can be determined separately from nonlinear regression fitting the protein alone melting curve: Where F(T) is the observed fluorescence intensity at any temperature T, Yn and Yu are the predicted fluorescence intensities for fully folded and unfolded protein, respectively; mn and mu are slope correction for changes in Yn and Yu with respect to changes in temperature (analogously replace T0 with Tm in the above equation for liganded protein to yield Tm). […] [formula] where ΔHL (T) is the van't Hoff enthalpy of ligand binding at temperature T and ΔCpL is the heat capacity upon ligand binding. For simplicity, the ΔCpL and ΔHL (T) were set to zero and −7 kcal/mol respectively.

[2] = biological target: fully phosphorylated, mouse aERK2 enzyme (Mus musculus (Mouse), UniProt P63085); test: Active ERK2 (aERK) IMAP-FP assay, condition 2; format: biochemical; conditions: active ERK2; read-out: aErk2 Ic50
Method in brief: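 Phosphorylation by fully phosphorylated mouse ERK2 ran 40-45 min, then quenched with IMAP beads (1:1000) in binding buffer; fluorescence polarization read after 30 min binding equilibration.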

ERK protein, sequence (P63085 2-358 limits assumed): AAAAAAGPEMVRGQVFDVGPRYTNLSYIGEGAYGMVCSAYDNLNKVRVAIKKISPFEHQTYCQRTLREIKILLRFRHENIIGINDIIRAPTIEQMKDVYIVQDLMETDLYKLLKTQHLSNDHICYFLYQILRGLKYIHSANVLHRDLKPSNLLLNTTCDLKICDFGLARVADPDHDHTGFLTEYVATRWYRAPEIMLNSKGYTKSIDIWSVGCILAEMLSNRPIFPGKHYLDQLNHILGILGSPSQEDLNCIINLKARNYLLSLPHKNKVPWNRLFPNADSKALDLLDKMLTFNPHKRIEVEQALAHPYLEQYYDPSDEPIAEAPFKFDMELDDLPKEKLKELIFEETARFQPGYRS
fully phosphorylated, active Mouse ERK2 protein, sequence (P63085 whole entry): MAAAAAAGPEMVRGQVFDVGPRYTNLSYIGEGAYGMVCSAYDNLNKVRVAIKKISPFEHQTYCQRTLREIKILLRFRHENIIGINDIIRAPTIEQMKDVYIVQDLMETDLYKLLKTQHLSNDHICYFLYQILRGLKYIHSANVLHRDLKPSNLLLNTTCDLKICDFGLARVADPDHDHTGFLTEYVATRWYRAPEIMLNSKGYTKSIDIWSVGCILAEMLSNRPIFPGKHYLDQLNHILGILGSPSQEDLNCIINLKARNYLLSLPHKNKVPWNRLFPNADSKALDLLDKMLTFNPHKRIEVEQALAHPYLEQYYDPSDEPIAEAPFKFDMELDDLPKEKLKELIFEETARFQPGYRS
fully phosphorylated, mouse aERK2 enzyme, sequence (P63085 whole entry): as above

Row | SMILES | IC50 [1] | Kd (ERK protein) | IC50 [2]
1 | Cc1cc(-c2n[nH]c3ccc(C(=O)N[C@@H]4CCCN(C5CCc6ccccc65)C4)cc23)ccn1 (some centres unmarked) | 65.4 nM | 0.28 nM | –
2 | O=C(NC1CCCCNC1=O)c1ccc2[nH]nc(-c3ccncc3)c2c1 (centres unmarked) | – | 73 nM | –
3 | Cc1cc(-c2n[nH]c3ccc(C(=O)N[C@@H]4CCCN(Cc5ncccc5F)C4)cc23)ccn1 | 234 nM | 1.89 nM | –
4 | COc1cccc(F)c1CN1CCC[C@@H](NC(=O)c2ccc3[nH]nc(-c4cccc(C#N)c4)c3c2)C1 | 264 nM | 0.83 nM | –
5 | Cc1cc(-c2n[nH]c3ccc(C(=O)N[C@@H]4CCCN(Cc5c(C)cccc5C)C4)cc23)ccn1 | 89 nM | 0.13 nM | –
6 | O=C(N[C@@H]1CCCN(Cc2ccncc2)C1)c1ccc2[nH]nc(-c3ccc4c(c3)CCO4)c2c1 | 626 nM | 76 nM | –
7 | COc1cccc(CN2CCC[C@@H](NC(=O)c3ccc4[nH]nc(-c5ccnc(C)c5)c4c3)C2)n1 | 220 nM | 2.33 nM | –
8 | COc1cccc(F)c1CN1C[C@H](C)C[C@@H](NC(=O)c2ccc3[nH]nc(-c4ccnc(C)c4)c3c2)C1 | 204 nM | 3.33 nM | –
9 | COc1cccc(F)c1CN1C[C@H]2C[C@@H]1[C@H](NC(=O)c1ccc3[nH]nc(-c4ccc5nn(C)cc5c4)c3c1)C2 | 527 nM | 85.2 nM | –
10 | Cc1cc(-c2n[nH]c3ccc(C(=O)N[C@@H]4CCCN(Cc5csc6ccccc56)C4)cc23)ccn1 | 18.7 nM | 0.53 nM | –
11 | COc1cccc(F)c1CN1C[C@@H](C)C[C@@H](NC(=O)c2ccc3[nH]nc(-c4ccc5nccn5c4)c3c2)C1 | 5.84 nM | 0.01 nM | –
12 | Cc1cc(-c2n[nH]c3ccc(C(=O)N[C@@H]4CCCN(Cc5ccncn5)C4)cc23)ccn1 | 507 nM | 20.5 nM | –
13 | O=C(NC1CN(C(=O)OCc2ccccc2)CCNC1=O)c1ccc2[nH]nc(-c3ccncc3)c2c1 (centres unmarked) | – | 290 nM | –
14 | COc1cccc(F)c1CN1C[C@@H](NC(=O)c2ccc3[nH]nc(-c4ccnc(C)c4)c3c2)CCC1=O | 992 nM | 4.12 nM | –
15 | COc1cccc(F)c1CN1CCC[C@@H](NC(=O)c2ccc3[nH]nc(-c4ccc5nc(C)sc5c4)c3c2)C1 | 78.5 nM | 0.1 nM | –
16 | CCc1cc(-c2n[nH]c3ccc(C(=O)N[C@@H]4CCCN(Cc5ccccc5F)C4)cc23)ccn1 | 19.8 nM | 0.4 nM | –
17 | COc1cc(-c2n[nH]c3ccc(C(=O)N[C@@H]4CCCN(Cc5ccccc5F)C4)cc23)ccn1 | 112 nM | 0.81 nM | –
18 | COc1cccc(F)c1CN1CCC[C@@H](NC(=O)c2ccc3[nH]nc(-c4ccc5sccc5c4)c3c2)C1 | 807 nM | 0.15 nM | –
19 | CCCOc1ccccc1CN1CCC[C@@H](NC(=O)c2ccc3[nH]nc(-c4ccnc(C)c4)c3c2)C1 | 246 nM | 1.72 nM | –
20 | O=C(N[C@@H]1CCCN(Cc2ccccc2F)C1)c1ccc2[nH]nc(-c3ccnc(C4CC4)c3)c2c1 | 33.2 nM | 0.4 nM | –
21 | COc1cccc(F)c1CN1CC(CO)CC(NC(=O)c2ccc3[nH]nc(-c4ccc5nccn5c4)c3c2)C1 (centres unmarked) | 140 nM | 1.68 nM | –
22 | O=C(N[C@@H]1CCCN(Cc2ccccc2F)C1)c1ccc2[nH]nc(-c3ccnc(C(F)(F)F)c3)c2c1 | 507 nM | 6.6 nM | –
23 | COc1cccc(F)c1CN1CCC[C@@H](NC(=O)c2ccc3[nH]nc(-c4ccnc(C)c4)c3c2)C1 | 4.98 nM | 0.22 nM | –
24 | COc1cccc(F)c1CN1CCC[C@@H](NC(=O)c2ccc3[nH]nc(-c4cccc(NC(C)=O)c4)c3c2)C1 | 286 nM | 1.38 nM | –

Row | SMILES | IC50 [1] | Kd (ERK protein) | IC50 [2]
25 | COc1cccc(F)c1CN1CCC[C@@H](NC(=O)c2ccc3[nH]nc(-c4ccc(N)c(OC(C)=O)c4)c3c2)C1 | 483 nM | 6.5 nM | –
26 | COc1cccc(F)c1CN1CCC[C@@H](NC(=O)c2ccc3[nH]nc(-c4ccc5cncn5c4)c3c2)C1 | 4.02 nM | 0.1 nM | –
27 | COc1cccc(F)c1CN1CC(NC(=O)c2ccc3[nH]nc(-c4ccc5nccn5c4)c3c2)CC(C(=O)O)C1 (centres unmarked) | 64.7 nM | 0.26 nM | –
28 | Cc1cc(-c2n[nH]c3ccc(C(=O)N[C@@H]4CCCN(CC(=O)c5ccccc5F)C4)cc23)ccn1 | 32.9 nM | 2.4 nM | –
29 | COc1cccc(F)c1CN1CCC[C@@H](NC(=O)c2ccc3[nH]nc(-c4ccc5nc(C)oc5c4)c3c2)C1 | 16.4 nM | 0.1 nM | –
30 | O=C(N[C@@H]1CCCN(Cc2nccs2)C1)c1ccc2[nH]nc(-c3ccc4c(c3)CCO4)c2c1 | 251 nM | 10.5 nM | –
31 | COc1cccc(F)c1CN1CCC[C@@H](NC(=O)c2ccc3[nH]nc(-c4ccc(C#N)cc4)c3c2)C1 | 155 nM | 0.24 nM | –
32 | Cc1cc(-c2n[nH]c3ccc(C(=O)NC4CCCN(Cc5ncccn5)C4)cc23)ccn1 (centres unmarked) | 923 nM | 130 nM | –
33 | Cc1cc(-c2n[nH]c3ccc(C(=O)N[C@@H]4CCCN(Cc5ccccc5O)C4)cc23)ccn1 | 140 nM | 2.36 nM | –
34 | CCn1cc(-c2n[nH]c3ccc(C(=O)N[C@@H]4CCCN(Cc5c(F)cccc5OC)C4)cc23)cn1 | 114 nM | 1.59 nM | –
35 | COc1cccc(F)c1CN1C[C@@H](C)C[C@@H](NC(=O)c2ccc3[nH]nc(-c4ccc5nn(C)cc5c4)c3c2)C1 | 6.1 nM | 0.02 nM | –
36 | Cc1cc(-c2n[nH]c3ccc(C(=O)N[C@@H]4CCCN(CCc5ccccc5F)C4)cc23)ccn1 | 98.8 nM | 4.8 nM | –
37 | CC(=O)Nc1cc(-c2n[nH]c3ccc(C(=O)N[C@@H]4CCCN(Cc5ccccc5F)C4)cc23)ccc1O | 74.7 nM | 0.48 nM | –
38 | O=C(Nc1ccc2[nH]nc(-c3ccncc3)c2c1)C1CNCC(c2ccccc2)C1 (centres unmarked) | – | 8 nM | –
39 | COc1cccc(F)c1CN1C[C@H](C)C[C@@H](NC(=O)c2ccc3[nH]nc(-c4ccc5nccn5c4)c3c2)C1 | 10.6 nM | 0.03 nM | –
40 | Cc1cc(-c2n[nH]c3ccc(C(=O)N[C@@H]4CCCN(C(C)c5ccccc5)C4)cc23)ccn1 (some centres unmarked) | 128 nM | 4.4 nM | –
41 | Cc1cc(-c2n[nH]c3ccc(C(=O)N[C@@H]4CCCN(Cc5cc6ccccc6s5)C4)cc23)ccn1 | 90.1 nM | 3.97 nM | –
42 | COC(=O)C1CC(NC(=O)c2ccc3[nH]nc(-c4ccnc(C)c4)c3c2)CN(Cc2c(F)cccc2OC)C1 (centres unmarked) | 146 nM | 3.79 nM | –
43 | N#Cc1ccc(CN2CCC[C@@H](NC(=O)c3ccc4[nH]nc(-c5ccc6c(c5)CCO6)c4c3)C2)cc1 | 1000 nM | 82 nM | –
44 | Cc1cc(-c2n[nH]c3ccc(C(=O)N[C@@H]4CCCN(Cc5scnc5C)C4)cc23)ccn1 | 875 nM | 20.3 nM | –
45 | CN1CC(NC(=O)c2ccc3[nH]nc(-c4ccncc4)c3c2)CC(c2ccccc2)C1 (centres unmarked) [drawing 219] | – | 1.4 nM | –
46 | O=C(NC1CNCC(c2ccccc2)C1)c1ccc2[nH]nc(-c3ccncc3)c2c1 (centres unmarked) | – | 0.8 nM | –
47 | O=C(NC1CNCCC1c1cccc(F)c1)c1ccc2[nH]nc(-c3ccncc3)c2c1 (centres unmarked) | – | 106 nM | –
48 | COc1cccc(F)c1CN1C[C@H](NC(=O)c2ccc3[nH]nc(-c4ccncc4)c3c2)CC[C@H]1C(=O)N(C)C [N-[(3R,6S)-6-(dimethylcarbamoyl)-1-(2-fluoro-6-methoxybenzyl)piperidin-3-yl]-3-pyridin-4-yl-1H-indazole-5-carboxamide] | – | – | 18.2 nM
